“Also recorded” adds a separate entry of the source.
Assays:
[1] = test system: broad panel of kinases representing most families; test: Broad panel of kinases; format: biochemical
[2] = High fat diet prevention group: body weight and food intake; format: in vivo, C57BL/6 mice
Experimental: (§1) Wild type male C57BL/6 mice were fed a high fat diet consisting of 45% of calories from fat (D12451 Research Diets Inc., New Brunswick, N.J.) starting at 8 weeks of age for 12-24 weeks, while normal diet C57BL/6 controls were maintained on normal chow diet consisting of 4.5% fat (5002 Lab Diet, Philadelphia, Pa.). Diets containing ω-3 fatty acids were fed as previously described 24. Rosiglitazone treatment was administered for three weeks by addition of the compound to the diet in mice that had been on HFD for 16 weeks. Each mouse consumed on average 3.5 mg/kg rosiglitazone per day. Amlexanox was administered by daily oral gavage. […] Animals were housed in a specific pathogen-free facility with a 12-hour light/12-hour dark cycle and given free access to food and water. All animal use was in compliance with the Institute of Laboratory Animal Research Guide for the Care and Use of Laboratory Animals and approved by the University Committee on Use and Care of Animals at the University of Michigan and UCSD.
(§2) The remaining weight of food provided was determined daily for singly housed mice. Daily food consumption was calculated from a three-day average.

[3] = High fat diet prevention group: oral glucose tolerance test; format: in vivo, C57BL/6 mice; settings: 25 mg/kg for 8 weeks concurrently with high fat diet
Experimental: as §1
(§3) For glucose tolerance tests, after a six-hour fast mice were orally gavaged with glucose at a dose of 1.5 g/kg (C57BL/6 mice) or 1.2 g/kg (ob/ob mice). […] Blood glucose was measured at basal, 15, 30, 45, 60, 90, 120 and 180 minutes from tail blood using the One Touch Ultra glucometer (Lifescan, Milpitas, Calif.).

[4] = Established diet-induced obesity treatment group: body weight, food intake, body composition; format: in vivo, C57BL/6 mice
Experimental: as §1, §2

[5] = Ob/ob mice: body weight, food intake, adipose mass; format: in vivo; settings: 100 mg/kg
[6] = Ob/ob mice: glucose tolerance tests; format: in vivo; settings: 100 mg/kg
Experimental: (§4) Particular physiological tests were used during the development of the technology provided herein. For example, in some of the experiments described below, subjects were tested for tolerance of injected glucose and insulin according to the methods described in Chiang et al. (“The protein kinase IKKepsilon regulates energy balance in obese mice”, Cell (2009) 138: 961-975, incorporated herein by reference in its entirety for all purposes). In some of the experiments described below, subjects were tested for tolerance of oral glucose. In particular, mice were fasted for 6 hours before the studies. For ob/ob mice, 1.0-1.5 mg/g of glucose was gavaged into mice, and blood glucose was measured with a glucometer (e.g., OneTouch Ultra glucometer). Measurement of triglycerides, mRNA, and cytokines were performed according to the methods described in Chiang et al. (The protein kinase IKKepsilon regulates energy balance in obese mice. Cell (2009) 138: 961-975).
as §3

[7] = Ob/ob mice: insulin tolerance test; format: in vivo; settings: 100 mg/kg, 8-week period
Experimental: as §4, §3

[8] = Ob/ob mice: liver mRNA levels; format: in vivo; settings: 100 mg/kg for 14 weeks, vs vehicle
Experimental: as §4
(§5) Mouse tissues were isolated, rinsed in Phosphate Buffered Saline (PBS), frozen in liquid nitrogen and stored at −80° C. until extraction. Total RNA was extracted from Liver, WAT and BAT tissues as well as differentiated 3T3-L1 cells using the RNeasy Lipid Tissue Kit (Qiagen, Valencia, Calif.) according to the manufacturer's instructions with the inclusion of a DNase digestion step. Total RNA was extracted from BMDM and SVF cells using the RNeasy Kit (Qiagen, Valencia, Calif.) with a DNase step. The Superscript First-Strand Synthesis System for RTPCR (Invitrogen, Grand Island, N.Y.) was used with random primers for reverse transcription. Realtime PCR amplification of the cDNA was performed on samples in triplicate with Power SYBR Green PCR Master Mix (Applied Biosystems, Carlsbad, Calif.) using the Applied Biosystems 7900HT Fast Realtime PCR System. […] Data was analyzed using the 2-ΔΔCT method, and statistical significance was determined using the unpaired heterocedastic Student's t-test with one averaged sample value per mouse.

[9] = Ob/ob mice: adipose tissue histology and mRNA levels; format: in vivo
Experimental: Tissues were fixed in formalin for 3 days. Histology was performed by the University of Michigan Cancer Center Research Histology Laboratory.
as §5

3T3-L1 adipocytes = test: 3T3-L1 adipocytes: phosphorylation (immunoblot) and lipolysis; format: cell-based
Experimental: 3T3-L1 fibroblasts (American Type Culture Collection, Manassas, Va.) were cultured and differentiated using standard methods known in the art. […] 3T3-L1 adipocytes were serum starved with 0.5% fetal bovine serum (FBS) in Dulbecco's modified eagle medium (DMEM) prior to treatment. TNFα treatments (50 ng/mL unless otherwise noted) were performed during the 24 hour prior to harvest, after pretreatment with IKKβ inhibitor compound VIII (EMD Biosciences, Philadelphia, Pa.) for 1 hour where indicated. […] Cells were treated with or without 10 nM of insulin for 15 minutes. RAW264.7 cells were serum starved with 0.5% FBS DMEM media and pre-treated with or without Cay-10576 (Cayman Chemical, Ann Arbor, Mich.). The cells were then treated with LPS (0.5 μg/ml) or poly I:C (50 μg/ml) for 1 hour. Cells were harvested for total RNA and analyzed by real-time PCR Cell lysates were resolved on SDS-PAGE and analyzed by immunoblot using the indicated antibodies.

BAT explants = test: Lipid oxidation rate in ex vivo BAT; set-up: species or system mice; settings: 5 μM amlexanox, 1 hour
Experimental: Lipid oxidation was determined by the conversion of 3H-palmitic acid to 3H2O.

[10] = cells chronically treated with TNFα

CC(C)c1ccc2oc3nc(N)c(C(=O)O)cc3c(=O)c2c1 [amlexanox, 2-amino-7-isopropyl-5-oxo-5H-chromeno[2,3-b]pyridine-3-carboxylic acid]
block of other kinases of a broad panel [1]: did not block | body weight compared with control diet mice ([2]; 45% fat diet, 25 or 100 mg/kg, throughout 12 weeks): maintained weights equivalent to those of control diet mice | weight gain produced by high-fat diet ([2]; 45% fat diet, daily gavage, either dose 25 or 100 mg/kg): prevented the weight gain | weight gain after switching to 60% fat diet ([2]; both doses 25 and 100 mg/kg, after 12 weeks on 45% fat diet): prevented substantial weight gain | reduction in the area under the curve for glucose (oral glucose tolerance) [3]: 30-40% | weight loss ([4]; 25 mg/kg after 12 weeks of 45% high-fat diet, after 4 weeks of treatment): 10 g | reduction in overall mass of adipose tissue ([4]; 25 mg/kg, HFD, treatment phase): > 6 gram | time to return to control weights after treatment was stopped ([4]; withdrawal after 8 weeks of 25 mg/kg treatment, HFD): 6-8 weeks | adipose tissue mass [5]: significant decrease | weight loss ([5]; after 4 weeks of treatment): 7 to 8 g | tolerance to injected glucose ([6]; 5-week period): faster clearance of blood glucose | reduction in the area under the curve (oral glucose tolerance) ([6]; 8-week period, relative to control mice): 30-40% | insulin sensitivity (responsiveness to injected insulin) [7]: dramatically improved | liver mRNA level, Cd11c [8]: reduced | liver mRNA level, F4/80 [8]: reduced | liver mRNA level, IL-10 [8]: reduced | liver mRNA level, MIP1α [8]: reduced | liver mRNA level, Rantes [8]: reduced | liver mRNA level, TNFα [8]: reduced | liver mRNA level, acetyl CoA carboxylase (ACC) [8]: reduced | liver mRNA level, fatty acid synthase (FAS) [8]: reduced | liver mRNA level, stearyl CoA desaturase (SCD1) [8]: reduced | expression of Glut4 in WAT ([9]; 100 mg/kg): Increased expression | expression of PPARγ in WAT ([9]; 100 mg/kg): Increased expression | adipose tissue mRNA level, CD11c ([9]; 100 mg/kg for 12 weeks): marked reduction | adipose tissue mRNA level, F4/80 ([9]; 100 mg/kg for 12 weeks): marked reduction | adipose tissue mRNA level, IL-10 ([9]; 100 mg/kg for 12 weeks): marked reduction | adipose tissue mRNA level, MCP-1 ([9]; 100 mg/kg for 12 weeks): marked reduction | adipose tissue mRNA level, MIP1α ([9]; 100 mg/kg for 12 weeks): marked reduction | adipose tissue mRNA level, Rantes ([9]; 100 mg/kg for 12 weeks): marked reduction | adipose tissue mRNA level, TNFα ([9]; 100 mg/kg for 12 weeks): marked reduction | infiltration of inflammatory macrophages in adipose tissue (H & E) ([9]; 100 mg/kg for 12 weeks, epididymal fat): markedly reduced | basal lipolytic rate (glycerol release) (3T3-L1 adipocytes): increased | poly I:C-stimulated phosphorylation of IRF3 (serine 396) (3T3-L1 adipocytes; 1 hour pre-treatment, 20 μg/ml poly I:C): blocked; also recorded: inhibition | down regulation of PPARγ produced by TNFα (3T3-L1 adipocytes; [10]): did not affect | forskolin stimulated hormone sensitive lipase phosphorylation (serine 660) (3T3-L1 adipocytes; [10]): restored; also recorded: partially restores | phosphorylation of TBK1 at serine 172 in TNFα-treated cells (3T3-L1 adipocytes; [10]): restored | phosphorylation of TBK1 on serine 172 (3T3-L1 adipocytes; two-fold serial dilution, highest concentration 50 μM, with and without poly I:C): increased phosphorylation; also recorded: induction | lipid oxidation (3H-palmitic acid to 3H2O) (BAT explants): acutely stimulated
